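A five-concentration, 48-hour dose response in 96-well plates underlies each endpoint, interpolated linearly between surrounding concentrations. At the GI50, growth is halved.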 Activity calls are given as the source filed them. No stated cut-off is given here; in the data, active = GI50 up to about 1.1 µM and inactive = higher.
Assays:
Test in all cases: DTP human tumour cell line panel, 48 h
HL-60 = system: HL-60
SNB-75 = system: SNB-75
SF-295 = system: SF-295
PC-3 = system: PC-3
MOLT-4 = system: MOLT-4
M14 = system: M14
EKVX = system: EKVX
UO-31 = system: UO-31
SR = system: SR
U-251 = system: U-251
RXF 393 = system: RXF 393
LOX IMVI = system: LOX IMVI
HCT-116 = system: HCT-116
HT-29 = system: HT-29
CCRF-CEM = system: CCRF-CEM
OVCAR-8 = system: OVCAR-8
KM12 = system: KM12
SK-MEL-5 = system: SK-MEL-5
NCI-H23 = system: NCI-H23
NCI-H226 = system: NCI-H226

Measured: GI50

COC(=O)C1(Cc2ccc3c(c2)CCC3)Cc2ccc3c(c2C1=O)CCC3 (centres undefined)
inactive: HL-60 2.86 µM | SNB-75 5.42 µM | SF-295 3.72 µM | PC-3 9.02 µM | MOLT-4 4.06 µM | M14 4.26 µM | EKVX 11.1 µM | UO-31 10.6 µM | SR 2.55 µM | U-251 4.65 µM | RXF 393 2.11 µM | LOX IMVI 5.87 µM | HCT-116 3.66 µM | HT-29 3.29 µM | CCRF-CEM 5.21 µM | OVCAR-8 15.2 µM | KM12 4.12 µM | SK-MEL-5 4.35 µM | NCI-H23 6.62 µM | NCI-H226 10.5 µM

Cn1c(=O)sc2cc(C(=S)N3CCN(c4ccccc4)CC3)ccc21
inactive: HL-60 33.6 µM | SNB-75 28.7 µM | SF-295 19.9 µM | PC-3 31.3 µM | MOLT-4 > 100 µM | M14 > 100 µM | EKVX 44.3 µM | SR 6.67 µM | U-251 16 µM | RXF 393 30.5 µM | LOX IMVI 53.5 µM | HCT-116 85.5 µM | HT-29 > 100 µM | CCRF-CEM 40.7 µM | OVCAR-8 38.4 µM | KM12 > 100 µM | SK-MEL-5 > 100 µM | NCI-H23 34.1 µM | NCI-H226 55.3 µM

CCOC(=O)C1=C(OS(=O)(=O)C(F)(F)F)CCCC1
inactive: HL-60 > 100 µM | SNB-75 > 100 µM | SF-295 > 100 µM | PC-3 > 100 µM | MOLT-4 > 100 µM | M14 > 100 µM | EKVX > 100 µM | UO-31 > 100 µM | SR > 100 µM | U-251 > 100 µM | RXF 393 > 100 µM | LOX IMVI > 100 µM | HT-29 > 100 µM | CCRF-CEM > 100 µM | OVCAR-8 > 100 µM | KM12 > 100 µM | SK-MEL-5 83 µM | NCI-H23 > 100 µM | NCI-H226 > 100 µM

O[C@@]1(C#Cc2ccc3c(c2)OCO3)CCC[C@H]1NCc1ccccc1
inactive: HL-60 18.4 µM | SNB-75 27.8 µM | SF-295 19.8 µM | PC-3 19.2 µM | MOLT-4 15.9 µM | M14 15.7 µM | EKVX 33.5 µM | UO-31 18.6 µM | SR 23.2 µM | U-251 22.9 µM | RXF 393 24.3 µM | LOX IMVI 15.6 µM | HT-29 22.9 µM | CCRF-CEM 33.8 µM | OVCAR-8 22.8 µM | KM12 20 µM | SK-MEL-5 19.4 µM | NCI-H23 29.6 µM | NCI-H226 15.9 µM

COP(=N[Si](C)(C)C)(OC)OC
inactive: HL-60 > 100 µM | SNB-75 > 100 µM | PC-3 > 100 µM | MOLT-4 > 100 µM | M14 > 100 µM | EKVX > 100 µM | UO-31 > 100 µM | SR > 100 µM | U-251 > 100 µM | RXF 393 > 100 µM | LOX IMVI > 100 µM | HCT-116 > 100 µM | HT-29 > 100 µM | CCRF-CEM > 100 µM | OVCAR-8 > 100 µM | KM12 > 100 µM | SK-MEL-5 > 100 µM | NCI-H23 > 100 µM | NCI-H226 > 100 µM

NC(=O)CNC(=O)[C@@H]1C[C@@H](OCCC(=O)O)CN1C(=O)OCc1ccccc1
inactive: HL-60 > 100 µM | SNB-75 > 100 µM | SF-295 > 100 µM | PC-3 > 100 µM | MOLT-4 > 100 µM | M14 > 100 µM | EKVX > 100 µM | UO-31 > 100 µM | SR > 100 µM | U-251 > 100 µM | RXF 393 > 100 µM | LOX IMVI > 100 µM | HCT-116 > 100 µM | HT-29 > 100 µM | CCRF-CEM > 100 µM | OVCAR-8 > 10 µM | KM12 > 100 µM | SK-MEL-5 > 100 µM | NCI-H23 > 100 µM | NCI-H226 > 100 µM

COc1ccc(C[C@H]2NC[C@H](OC(C)=O)[C@H]2OC(C)=O)cc1
active: HL-60 0.1 µM | SNB-75 0.0721 µM | SF-295 0.183 µM | PC-3 0.21 µM | MOLT-4 0.205 µM | M14 0.0951 µM | EKVX 0.136 µM | UO-31 0.0583 µM | SR 0.177 µM | U-251 0.304 µM | RXF 393 0.144 µM | LOX IMVI 0.067 µM | HCT-116 0.105 µM | HT-29 0.183 µM | CCRF-CEM 0.126 µM | OVCAR-8 0.191 µM | KM12 0.192 µM | SK-MEL-5 0.0665 µM | NCI-H23 0.179 µM | NCI-H226 0.172 µM

O=C(NNC(=O)c1ccco1)c1ccco1
inactive: HL-60 > 100 µM | SNB-75 55 µM | SF-295 > 100 µM | PC-3 > 100 µM | MOLT-4 > 100 µM | M14 > 100 µM | EKVX > 100 µM | UO-31 > 100 µM | SR > 100 µM | U-251 > 100 µM | RXF 393 > 100 µM | LOX IMVI > 100 µM | HCT-116 > 100 µM | HT-29 > 100 µM | CCRF-CEM > 100 µM | OVCAR-8 > 100 µM | KM12 > 100 µM | SK-MEL-5 > 100 µM | NCI-H226 > 100 µM

c1ccc(C(Oc2noc3ccccc23)c2ccccc2)cc1
inactive: HL-60 23.4 µM | SNB-75 12.6 µM | SF-295 33 µM | PC-3 34.4 µM | MOLT-4 14.8 µM | M14 25.2 µM | EKVX 40.9 µM | UO-31 39.5 µM | SR 13.2 µM | U-251 31.7 µM | RXF 393 14.9 µM | LOX IMVI 38.7 µM | HCT-116 25.9 µM | HT-29 36.7 µM | CCRF-CEM 15.9 µM | OVCAR-8 45.3 µM | KM12 29.1 µM | SK-MEL-5 18.7 µM | NCI-H23 41.7 µM | NCI-H226 50.2 µM

NC(Cc1c2ccccc2cc2ccccc12)C(=O)O (centres undefined)
inactive: HL-60 > 100 µM | SNB-75 14 µM | SF-295 > 100 µM | PC-3 > 100 µM | MOLT-4 37 µM | M14 > 100 µM | EKVX > 100 µM | UO-31 78.7 µM | SR 68.9 µM | U-251 > 100 µM | RXF 393 > 100 µM | LOX IMVI > 100 µM | HCT-116 83.9 µM | HT-29 > 100 µM | CCRF-CEM 94.8 µM | OVCAR-8 8.09 µM | KM12 > 100 µM | SK-MEL-5 47.4 µM | NCI-H23 > 100 µM | NCI-H226 22.5 µM

O=[N+]([O-])/C(Cl)=C(\Nc1ccccc1)C(Cl)=C(Cl)Cl
inactive: HL-60 20.9 µM | SNB-75 2.19 µM | SF-295 33 µM | PC-3 38.3 µM | MOLT-4 33.3 µM | M14 23.7 µM | EKVX 39.8 µM | UO-31 40.7 µM | SR 27.4 µM | U-251 43.1 µM | RXF 393 37.3 µM | LOX IMVI 32.9 µM | HCT-116 36.1 µM | HT-29 30.5 µM | CCRF-CEM 12.7 µM | OVCAR-8 23.5 µM | KM12 12.9 µM | SK-MEL-5 23.7 µM | NCI-H23 44.8 µM | NCI-H226 26.5 µM

c1cc2cc(Cc3ccc4[nH]ccc4c3)ccc2[nH]1
inactive: HL-60 10.7 µM | SNB-75 17.9 µM | SF-295 31 µM | PC-3 13.1 µM | MOLT-4 10.7 µM | M14 17.1 µM | EKVX 15.3 µM | UO-31 16.2 µM | SR 5.78 µM | U-251 15.4 µM | RXF 393 19.6 µM | LOX IMVI 27.8 µM | HCT-116 17.6 µM | HT-29 16.8 µM | CCRF-CEM 21.9 µM | KM12 14.2 µM | SK-MEL-5 16.1 µM | NCI-H23 18.6 µM | NCI-H226 15.9 µM

O=S(=O)(O)c1cc(O)c2c(/N=C\c3ccccc3O)cc(S(=O)(=O)O)cc2c1
inactive: HL-60 57.9 µM | SNB-75 93.5 µM | SF-295 > 100 µM | PC-3 > 100 µM | MOLT-4 9.57 µM | M14 > 100 µM | EKVX > 100 µM | UO-31 > 100 µM | SR > 100 µM | U-251 > 100 µM | RXF 393 > 100 µM | LOX IMVI > 100 µM | HCT-116 > 100 µM | HT-29 > 100 µM | CCRF-CEM > 100 µM | OVCAR-8 > 100 µM | KM12 > 100 µM | SK-MEL-5 > 100 µM | NCI-H23 > 100 µM | NCI-H226 > 100 µM

Cc1cc(S(N)(=O)=O)c(SCc2nc(N)nc(N(C)C)n2)cc1Cl
inactive: HL-60 > 10 µM | SNB-75 > 10 µM | SF-295 > 10 µM | PC-3 > 10 µM | MOLT-4 > 10 µM | M14 > 10 µM | EKVX > 10 µM | UO-31 > 10 µM | SR > 10 µM | U-251 > 10 µM | RXF 393 > 10 µM | LOX IMVI > 10 µM | HCT-116 > 10 µM | HT-29 > 10 µM | CCRF-CEM > 10 µM | OVCAR-8 > 10 µM | KM12 > 10 µM | SK-MEL-5 > 10 µM | NCI-H23 > 10 µM | NCI-H226 > 10 µM
